Measurements published in the NIST ThermoML archive (doi:10.1016/j.jct.2018.08.034).
Several values for one entry are separate records, joined by “and”; a condition that tells them apart may be missing. Equal entries are not always repeated.

Key:
[1] = Crystal
[2] = Molar enthalpy of transition or fusion; conditions: Crystal; DSC

c1ccc2cc3ccccc3cc2c1 [anthracene]
[1]
Conditions | vapor or sublimation pressure
343.29 K | 0.000192 kPa
343.3 K | 0.000182 kPa
343.31 K | 0.000197 kPa
345.76 K | 0.000235 kPa and 0.00024 kPa
345.79 K | 0.000247 kPa
348.21 K | 0.000317 kPa and 0.000305 kPa
348.27 K | 0.000297 kPa
350.75 K | 0.000392 kPa
350.76 K | 0.000401 kPa
350.79 K | 0.000384 kPa
353.04 K | 0.000479 kPa and 0.000485 kPa
353.19 K | 0.000498 kPa
355.68 K | 0.00063 kPa
355.73 K | 0.000626 kPa
355.74 K | 0.000623 kPa
358.14 K | 0.000799 kPa
358.15 K | 0.000784 kPa
358.18 K | 0.000798 kPa
360.63 K | 0.001 kPa
360.66 K | 0.000992 kPa
360.68 K | 0.000998 kPa
362.95 K | 0.00123 kPa and 0.001232 kPa
363.13 K | 0.001244 kPa
365.54 K | 0.00155 kPa
365.55 K | 0.001551 kPa
365.56 K | 0.001562 kPa
367.97 K | 0.001927 kPa and 0.001947 kPa
367.98 K | 0.001941 kPa
370.43 K | 0.002398 kPa
370.44 K | 0.002418 kPa and 0.002409 kPa
372.85 K | 0.00298 kPa
372.89 K | 0.002973 kPa and 0.002978 kPa

c1ccc2cc3sccc3cc2c1 [naphtho[2,3-b]thiophene]
Conditions | Molar enthalpy of transition or fusion [kcal/mol]
[2] | 5.09

Conditions | Normal melting temperature [°C]
[1], DTA | 188.6
